Consider two compounds from ChEMBL document CHEMBL4680271, “COVID-19: Drug Targets and Potential Treatments” (J Med Chem, 2020).

Test [1] has as its target Procathepsin L (Homo sapiens) (UniProt P07711). Briefly: Inhibition of Cathepsin L in HEK293 cells harboring human ACE2 assessed as reduction in SARS-CoV-2 S pseudovirions entry into host cell pretreated for 1 hr followed by viral infection and measured after overnight incubation by luciferase method. The test is classed as cell-based. To be noted: concentration not given here.

Test [2] has as its system SARS-CoV-2. Briefly: Antiviral activity against nCoV-2019 BetaCoV/Wuhan/WIV04/2019 infected in African green monkey VeroE6 cells assessed as reduction in viral yield preincubated for 1 hr followed by viral infection and further replacement of fresh medium containing compound and measured at 48 hrs post infection by qRT-PCR method. The test is classed as functional, organism-based. The following applies: Severe acute respiratory syndrome coronavirus 2, BetaCoV/Wuhan/WIV04/2019, Vero C1008. In general terms: Real-time PCR tracks product formation cycle by cycle.

Where only a bound is given, the exact number is not on record here.

One may read the inhibition as the change of the read-out against control, counted positive when it falls. By EC50 is commonly meant the concentration that produces a half-maximal response.

Chain of Procathepsin L (Homo sapiens) (P07711 114-333 limits assumed): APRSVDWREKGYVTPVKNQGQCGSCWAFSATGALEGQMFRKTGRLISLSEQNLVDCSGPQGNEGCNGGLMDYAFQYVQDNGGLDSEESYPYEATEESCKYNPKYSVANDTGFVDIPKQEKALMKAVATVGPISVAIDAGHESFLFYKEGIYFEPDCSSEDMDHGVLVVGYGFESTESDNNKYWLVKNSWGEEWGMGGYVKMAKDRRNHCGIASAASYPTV

Consider `CCc1ccccc1NC(=O)CSC(=O)NNC(=O)[C@H](Cc1c[nH]c2ccccc12)NC(=O)OC(C)(C)C`, for which the inhibition in test [1] was greater than 76%.
Take `Nc1nc2c(ncn2CCC(CO)CO)c(=O)[nH]1` [PENCICLOVIR]: the EC50 in test [2] was 96 µM.
